Data on two compounds can be found in US6046238A, “Method for treating or preventing the spread of acne vulgaris” (TriStrata, Inc., priority 1999, dated 2000).

Assay [1] in a line: topical treatment of nail infections. The format is in vivo, human. The note with it: non-synergistic composition, twice daily. From the text:
The participating subjects in the present study were instructed to apply twice daily the composition containing phenyl 2-acetoxyethanoic acid or diphenyl 2-acetoxyethanoic acid with or without clotrimazole as an additional antimicrobial agent.
In order to determine the antimicrobial effect of an aryl 2-acetoxyethanoicacid, a standard test method of Minimum Inhibitory Concentration (MIC) against the growth of 10 bacteria was used. To determine a prophylactic effect against the development of, as well as a topical effect in the treatment of, body foul door, eleven human subjects participated in this study. […] Scientific and test results are overviewed as follows.

A short description of assay [2]: axillary antiodor effectiveness (treatment). The format is in vivo, human. The note with it: 0.5%. The text has this: In another study the subjects were instructed not to take a shower in the morning. After the foul odor developed in both axillae, the subjects were instructed to apply the test composition containing 0.5% phenyl 2-acetoxyethanoic acid or diphenyl 2-acetoxyethanoic acid on the left underarm area and the control vehicle on the right underarm area. Topical applications were made once daily for several days.
Usually the left underarm ceased emanating any detectable foul odor after 1 day of topical use. The subjects were instructed at this time to apply the test composition containing 0.5% phenyl 2-acetoxyethanoic acid or diphenyl 2-acetoxyethanoic acid on the right underarm area also. Topical applications were made once daily for several days. The right axilla ceased to emanate any detectable foul odor after 1 to 2 days of topical use.

Assay [3] in a line: treatment of oral infections. The format is in vivo, human. The note with it: 2% composition diluted to 0.1%; oral rinse twice daily. As to the method:
Compositions for treatment of oral infections may contain an aryl 2-acetoxyethanoic acid as the only active ingredient. In this case a phenyl 2-acetoxyethanoic acid or diphenyl 2-acetoxyethanoic acid 2% composition was formulated by dissolving the active ingredient 2 g in ethanol 78 ml and propylene glycol 20 ml. Before use, this composition was diluted to 0.1% with water by mixing one part of the composition with 19 parts of water. The treatment involves oral rinse, wash and gargle by keeping the diluted composition inside the oral cavity for a few minutes, and then spit out. Such procedure may be repeated twice daily for several days until the infection is eradicated usually within 5-7 days.

The nature of assay [4]: topical treatment of folliculitis and perifolliculitis. The format is in vivo, human. The note with it: 0.9%, twice daily; nine patients. Here is the method:
Nine patients having various degrees of folliculitis and perifolliculitis participated in this study. A test composition containing 0.9% phenyl 2-acetoxyethanoic acid or diphenyl 2-acetoxyethanoic acid was prepared by dissolving 0.9 g compound in 79.1 ml 2-propanol, 15 ml butane-1,3-diol and 5 ml nonoxynol-6. The composition was packaged in one-ounce bottles. The patients were instructed to apply the test composition twice daily on the infected skin lesions and involved areas. Topical applications were continued up to 8 weeks.

A short description of assay [5]: reversal of corticosteroid unresponsiveness in psoriasis. Format: in vivo, human. The note with it: added once daily to corticosteroid twice daily; seven patients. As to the method:
To determine the therapeutic responsive effect of an aryl 2-acetoxyethanoicacid against psoriasis seven patient participated in this study. A test composition was prepared by dissolving 1 g phenyl 2-acetoxyethanoic acid or diphenyl 2-acetoxyethanoic acid in 2 ml ethanol. The solution thus obtained was mixed with 60 g petrolatum and 37 g mineral oil. The anhydrous ointment thus formulated was packaged in one-ounce jars.
When the drug unresponsiveness to a corticosteroid occurred, the participating patients were instructed to apply in addition the test composition once daily to the lesions on the left side of the body only. Topical applications of the corticosteroid were continued twice daily to both sides of the body. […] While psoriatic lesions on the right side of the body remained unresponsive to the topical corticosteroid, the lesions on the left side started to clear after 3 to 4 weeks of additional topical application with the composition containing an aryl 2-acetoxyethanoic acid.
At this time the patients were instructed to shift the additional topical application to the lesions on the right side instead of the left side of the body. The psoriatic lesions on the right side of the body began to clear after 3 to 4 weeks of additional topical application with the composition containing aryl 2-acetoxyethanoic acid.

The nature of assay [6]: prophylactic effect in preventing the development of axillary foul odor. Format: in vivo, human. The note with it: Example 5; 0.5% solution, topical; one person; up to 24 hours. Here is the method: A typical test for prophylactic effect in preventing the development of axillary foul odor was carried out as follows. A test composition was prepared by dissolving 0.5 g of phenyl 2-acetoxyethanoic acid or diphenyl 2-acetoxyethanoic acid in 70 ml of ethanol and 30 ml of propylene glycol. The control vehicle was prepared by mixing 70 ml of ethanol and 30 ml of propylene glycol. A human subject was instructed to take a shower in the morning using ordinary soap to clean the body surfaces. After the skin was dried, the test composition was topically applied to the left underarm area only. The vehicle control was topically applied to the right underarm area. Both underarm areas were monitored by the subject and at least one other person approximately every 8 hours to determine whether the test composition had any prophylactic effect in preventing the development of underarm foul odor in the left axilla as compared to the vehicle alone on the right control armpit.
Presence or substantial absence of foul odor, detected by smell, was adopted as the criteria for ineffectiveness or effectiveness of the test composition.
A total of seven subjects (four females; three males) participated in several studies. Most of these subjects could not use existing commercial products of antiperspirants or deodorants because of severe irritation after topical application. […]

For assay [7] the following is noted: caused by microbial infections including P. acnes; salicylic acid alone; cited from earlier work.

Entries after “also recorded” stand apart in the source; their conditions may differ.

For the compound `CC(=O)OC(C(=O)O)(c1ccccc1)c1ccccc1` [diphenyl 2-acetoxyethanoic acid], the “disappearance of nail infections” value in assay [1] is given as “usually disappeared within one to several months”. Further, the “overall axillary antiodor effectiveness” value in assay [2] (topical) is listed as “topically effective in eradicating the axillary foul odor”. Also, the “left axilla on continued use” value in assay [2] (continued, once daily for several days) is on record as “continued to maintain the condition free of any offensive foul odor”. In addition, the “time after which left underarm usually ceased emanating any detectable foul odor” value in assay [2] (no-shower study, left side) stood at 1 days. Further, the “intensity of foul odor, left underarm” value in assay [2] (no-shower study, once daily) is “diminished in intensity of foul odor after one to two days of topical application”. The “time after which left underarm ceased emanating any detectable foul odor” value in assay [2] (Example 6, once daily, one person, left side) was found to be 1 days. For the same compound, in assay [2] (Example 6, right side, formerly vehicle), the “time after which right axilla ceased to emanate any detectable foul odor” value is 1 days. The “time within which oral infection is usually eradicated” value in assay [3] was 5 to 7 days. Also, in assay [4], the “deeper lesions of papules” value is “eradicated or substantially improved after 4 to 8 weeks of topical applications”; the “superficial folliculitis and perifolliculitis lesions” value is reported as “eradicated or substantially improved after a few days of topical applications”. In addition, the “onset of improvement of psoriatic lesions, left side” value in assay [5] was “began to improve after one week”. Besides, the “prevention of axillary foul odor (left underarm)” value in assay [6] is given as “did not produce any detectable odor, even after 24 hours; also recorded: substantially effective in preventing the development of axillary foul odor”.

Consider `O=C(O)c1ccccc1O` [salicylic acid], for which the “effect against acne lesions associated with whiteheads” value in assay [7] is “not therapeutically effective against acne lesions associated with whiteheads”.
